# Assay: method code SF-HPLC, from DOI: 10.1248/cpb.43.1894
row,logP,SMILES
1,2.59,CC(C)C(=O)c1ccccc1
2,3.74,CSC(=S)c1ccccc1SC
3,3.3,CSC1=CCCCC1
4,3.81,CSC(=S)C1=C(SC)CCCC1
5,3.9,CSC(=S)C(C)(C)C(=O)c1ccccc1
6,3.12,S=C1CCCC1=C1SCCS1
7,2.8,CSC(=S)C(C)(C)C(C)=O

# Assay: method code SF-AS, from DOI: 10.2307/3577276, PMID: 2913608
row,SMILES,logP
1,CC(=O)Nc1cccc(NS(=O)(=O)c2[nH]cnc2[N+](=O)[O-])c1,0.2
2,CC(C)(C)c1ccc(NS(=O)(=O)c2[nH]cnc2[N+](=O)[O-])cc1,2.28
3,Cn1cnc([N+](=O)[O-])c1S(N)(=O)=O,-0.74

# The remaining lines, values ahead:
row,logP,SMILES
1,-0.37,CCNS(=O)(=O)c1[nH]cnc1[N+](=O)[O-]
2,-0.06,CC(=O)Nc1ccccc1NS(=O)(=O)c1[nH]cnc1[N+](=O)[O-]
3,1.38,O=[N+]([O-])c1nc[nH]c1S(=O)(=O)NC1CCCCC1

# Assay: method code SF-HPLC, from DOI: 10.3109/14756366.2013.845817, PMID: 24156741
row,SMILES,logP
1,C#CCn1cc(C(=O)NC(c2ccccc2)C(O)C(=O)Nc2ccccn2)c(=O)c2cccnc21 (stereo unspecified),4.02
2,C#CCn1cc(C(=O)NC(CC(=O)Nc2ccccc2)c2ccccc2)c(=O)c2ccc(Cl)nc21 (stereo unspecified),5.41
3,C#CCn1cc(C(=O)NC(CC(=O)NC2CCCC2)c2ccccc2)c(=O)c2cc(F)c(Cl)nc21 (stereo unspecified),5.96
4,C#CCn1cc(C(=O)NC(c2ccccc2)C(O)C(=O)NC2CCCC2)c(=O)c2cc(F)c(Cl)nc21 (stereo unspecified),5.82
5,C#CCn1cc(C(=O)NC(c2ccccc2)C(O)C(=O)Nc2ccccc2)c(=O)c2cccnc21 (stereo unspecified),4.25

# Results, then the compound that gave them:
row,logP,SMILES
1,5.32,C#CCn1cc(C(=O)NC(c2ccccc2)C(O)C(=O)Nc2ccccn2)c(=O)c2cc(F)c(Cl)nc21 (stereo unspecified)
2,5.14,C#CCn1cc(C(=O)NC(c2ccccc2)C(O)C(=O)NC2CCCCC2)c(=O)c2ccc(Cl)nc21 (stereo unspecified)

# Assay: not given
row,logP,SMILES
1,1.05,CNC(=O)c1ccccc1
2,2.61,Cc1c[nH]c2ccccc12

# Assay: method code SF-AS, from DOI: 10.1007/s001289900721, PMID: 9657823
row,SMILES,logP
1,COc1cc(C=O)cc(OC)c1OC,1.39
2,O=Cc1cccc(O)c1,1.29

# Further lines, results first:
row,logP,SMILES
1,2.5,O=Cc1cc(O)cc(Br)c1
2,1.88,CC(C)OC(=O)COc1ccc(C=O)cc1
3,1.63,CCOc1ccc(C=O)cc1OC
4,1.83,O=Cc1ccc(O)c(Br)c1
5,3.35,O=Cc1cc(Br)ccc1Br

# Assay: not given
# Remark: another data set of the same source
row,logP,SMILES
1,2.96,Cc1nc(N2CCNCC2)c(C#N)cc1-c1ccncc1
2,3.15,Cc1nc(N2CCNCC2)c(C#N)cc1-c1ccccc1
3,2.43,N#Cc1cc(-c2ccncc2)cnc1NCCCN1CCOCC1
4,1.93,N#Cc1cc(-c2ccncc2)cnc1NCCN
5,2.51,N#Cc1cc(-c2ccncc2)cnc1N1CCNCC1
6,2.56,CCN(CC)CCCNc1ncc(-c2ccncc2)cc1C#N
7,2.14,N#Cc1cc(-c2ccncc2)cnc1N1CCN(CCO)CC1

# Assay: not given
# Remark: another data set of the same source
row,SMILES,logP
1,CCOP(=S)(OCC)SCCSCC,3.84
2,CCOC(=O)C(SP(=S)(OC)OC)c1ccccc1 (stereo unspecified),3.32
3,Cc1ccc(S(=O)(=O)Oc2c(C(=O)c3ccc(Cl)cc3Cl)c(C)nn2C)cc1,3.9
4,COP1(=S)OCc2ccccc2O1 (stereo unspecified),2.12
5,CCN(OC(=O)c1ccccc1)C(=O)c1c(OC)ccc(Cl)c1OC,3.73
6,CCCOP(=O)(OCCC)Oc1ccc(SC)cc1,3.44
7,CCCOP(=S)(OCCC)SCC(=O)N1CCCCC1C (stereo unspecified),4.04

# Assay: method code SF-HPLC, from DOI: 10.1002/ps.2780220406
row,SMILES,logP
1,c1ccc(Cn2cncn2)cc1,0.92
2,Clc1ccc(Cn2cncn2)cc1,1.84

# Further lines, results first:
row,logP,SMILES
1,1.74,FC(F)(F)c1cccc(Cn2cncn2)c1
2,1.1,COc1ccc(Cn2cncn2)cc1
3,1.1,Fc1ccc(Cn2cncn2)cc1
4,2.81,CCCCc1ccc(Cn2cncn2)cc1

# Assay: not given
# Remark: another data set of the same source
row,SMILES,logP
1,CN(C)c1cccc2c(S(N)(=O)=O)cccc12,1.83
2,NS(=O)(=O)c1ccc([N+](=O)[O-])cc1[N+](=O)[O-],0.3
3,CC(C)CN[C@H]1CCS(=O)(=O)c2sc(S(N)(=O)=O)cc21,-0.03

# Next, values leading:
row,logP,SMILES
1,3.27,NS(=O)(=O)c1cc(C(=O)O)cc(N2CCCC2)c1Oc1ccccc1
2,1.65,NS(=O)(=O)c1cc(Cl)ccc1Cl
3,0.4,NS(=O)(=O)c1ccccc1[N+](=O)[O-]
4,0.58,NS(=O)(=O)c1ccc([N+](=O)[O-])cc1

# Reference: the SangsterLogP compilation
